According to patent US20240309117A1, “APTAMER-PEPTIDE CONJUGATES” (CITY UNIVERSITY OF HONG KONG, priority 2023, published 2024):
[L-RNA-N] = L-ribonucleotide (mirror-image RNA) unit (N: the base)

What was measured:
hTERC rG4 WT [1] = experiment: Dual-luciferase reporter assay, hTERC rG4 WT, HEK 293T cells; assay type: cell-based, human
Method: (§1) The DNA sequences encoding hTERC rG4 WT, hTERC rG4 Mut, NRAS rG4 WT, NRAS rG4 Mut, APP rG4 WT, and APP rG4 Mut (Table 1) were respectively introduced into the 5′UTR of the renilla luciferase gene in the psiCHECK-2 vector. 2×10^4 HeLa cells were seeded on 96-well black-wall plates. In sequential addition assay, 10 ng WT and Mut plasmids were transfected to cells by LIPOFECTAMINE® 2000 separately. Subsequently, Tamra_Ahx_R8, Tamra_Ahx_R8_L-Apt.4-1c, and L-Apt.4-1c (0, 100 nM, 200 nM) were separately added to cells after being washed with phosphate buffered saline (PBS) at 4 hours post-transfection and incubated for 48 hours. In co-transfection assay, 10 ng WT or Mut plasmid was co-transfected with Tamra_Ahx_R8, Tamra_Ahx_R8_L-Apt.4-1c, and L-Apt.4-1c (0, 100 nM, 200 nM) separately to cells by LIPOFECTAMINE® 2000 and incubated for 48 hours. Luciferase activity was determined by microplate reader. The renilla activity was normalized to firefly activity for data analysis.

hTERC rG4 WT [2] = experiment: Dual-luciferase reporter gene assay, hTERC rG4 WT, HeLa cells; assay type: cell-based, human; settings: 200 nM, 48 hours
Method: as §1

## L-Apt.4-1c: the L-RNA aptamer of SEQ ID NO: 1 (GCCCUAAAGGUGGUGGUGGGAGGGC), non-conjugated control (all [L-RNA-N], backbone not given here)
hTERC rG4 WT [1]
  Effect on normalized luciferase activity, hTERC rG4 WT construct: cannot regulate luciferase activity
hTERC rG4 WT [2]; co-transfection with plasmid by LIPOFECTAMINE 2000, 0, 100 nM
  Effect on normalized luciferase activity, hTERC rG4 WT construct: only functioned well in co-transfection method
hTERC rG4 WT [2]; sequential addition, absence of transfection reagent, 0, 100 nM
  Effect on normalized luciferase activity, hTERC rG4 WT construct: neither Tamra_Ahx_R8 peptide nor L-Apt.4-1c modulated luciferase activity
